From ChEMBL document CHEMBL1132901, “Synthesis and structure-activity relationships of quaternary ammonium cephalosporins with 3-pyrazolylpyridinium derivatives” (2000) come the findings set out here.

In one test the test system is Klebsiella aerogenes. The test is described as follows: In vitro antimicrobial activity against Klebsiella aerogenes 1522 E. The format is functional.
In test [1] the test system is Pseudomonas aeruginosa. The test is described as follows: In vitro antimicrobial activity against Pseudomonas aeruginosa 9027. It counts as functional.
Test [2] concerns Escherichia coli. Briefly: In vitro antimicrobial activity against Escherichia coli DC 0. The format is functional.
Test [3] deals with Escherichia coli. The test is described as follows: In vitro antimicrobial activity against Escherichia coli 055. The format is functional.
A further test has as its system Enterococcus faecium. Briefly: In vitro antimicrobial activity against Streptococcus faecium MD 8b. It counts as functional.
For test [4], the system named is Escherichia coli. The test is described as follows: In vitro antimicrobial activity against Escherichia coli TEM. The format is functional.
Test [5] concerns Escherichia coli. Briefly: In vitro antimicrobial activity against Escherichia coli DC 2. The format is functional.
Test [6] has as its system Streptococcus pyogenes. The test is described as follows: In vitro antimicrobial activity against Streptococcus pyogenes 77A. It counts as functional.
Another test deals with Klebsiella oxytoca. Briefly: In vitro antimicrobial activity against Klebsiella oxytoca 1082. The format is functional.
Test [7] deals with Enterobacter cloacae. The test is described as follows: In vitro antimicrobial activity against Enterobacter 1321 E. The format is functional.
Test [8] has as its system Streptococcus pyogenes. Briefly: In vitro antimicrobial activity against Streptococcus pyogenes SG 511. It counts as functional.
Test [9] relates to Escherichia coli. The test is described as follows: In vitro antimicrobial activity against Escherichia coli 1507E. The format is functional.
Test [10] deals with Streptococcus pyogenes. The test is described as follows: In vitro antimicrobial activity against Streptococcus pyogenes A 308. The format is functional.
In test [11] the test system is Pseudomonas aeruginosa. The test is described as follows: In vitro antimicrobial activity against Pseudomonas aeruginosa 1771 M. It counts as functional.
In test [12] the test system is Staphylococcus aureus. Briefly: In vitro antimicrobial activity against Staphylococcus aureus 285. The format is functional.
A further test concerns Salmonella typhimurium. The test is described as follows: In vitro antimicrobial activity against Salmonella Typhimurium. It counts as functional, Salmonella enterica subsp. enterica serovar Typhimurium. The conditions noted are these: Salmonella enterica.
For test [13], the system named is Pseudomonas aeruginosa. Briefly: In vitro antimicrobial activity against Pseudomonas aeruginosa 1592 E. It counts as functional.
For test [14], the system named is Enterobacter cloacae. The test is described as follows: In vitro antimicrobial activity against Enterobacter cloacae P99. It counts as functional.
The subject of test [15] is Pseudomonas aeruginosa. The test is described as follows: In vitro antimicrobial activity against Pseudomonas aeruginosa 1771. It counts as functional.
Test [16] relates to Staphylococcus aureus. The test is described as follows: In vitro antimicrobial activity against Staphylococcus aureus 503. It counts as functional.
Test [17] has as its system Staphylococcus aureus. The test is described as follows: In vitro antimicrobial activity against Methicillin resistant Staphylococcus aureus (MRSA). The format is functional.

≈ marks a conversion by molar mass, not a printed value. Some results are limits rather than exact numbers.

For orientation: MIC means the least concentration at which growth counts as inhibited. High values mean weaker potency, low ones greater potency. Regarding `CO/N=C(/C(=O)N[C@@H]1C(=O)N2C(C(=O)[O-])=C(C[n+]3cccc(-c4cc[nH]n4)c3)CS[C@H]12)c1csc(N)n1`, the MIC against Klebsiella aerogenes is 0.098 µg/mL (≈ 0.181 µM); in the test with Pseudomonas aeruginosa [1] it was 25 µg/mL (≈ 46.2 µM); against Escherichia coli [2], 0.098 µg/mL (≈ 0.181 µM); in the test on Escherichia coli [3] it was 0.049 µg/mL (≈ 0.0906 µM); with Enterococcus faecium it was 6.25 µg/mL (≈ 11.6 µM); against Escherichia coli [4], 0.195 µg/mL (≈ 0.361 µM). The MIC turned out to be 0.049 µg/mL (≈ 0.0906 µM) in the test on Escherichia coli [5]; 0.025 µg/mL (≈ 0.0462 µM) against Streptococcus pyogenes [6]; 6.25 µg/mL (≈ 11.6 µM) in the test on Klebsiella oxytoca; 0.098 µg/mL (≈ 0.181 µM) against Enterobacter cloacae [7]; 3.12 µg/mL (≈ 5.78 µM) in the test on Streptococcus pyogenes [8]; 0.195 µg/mL (≈ 0.361 µM) against Escherichia coli [9]. For the same compound, the minimal inhibitory concentration (MIC) against Streptococcus pyogenes [10] was 0.049 µg/mL (≈ 0.0906 µM); in the test with Pseudomonas aeruginosa [11], 3.12 µg/mL (≈ 5.78 µM); in the test with Staphylococcus aureus [12], 3.12 µg/mL (≈ 5.78 µM); in the test on Salmonella typhimurium it was 0.195 µg/mL (≈ 0.361 µM); against Pseudomonas aeruginosa [13] it was 12.5 µg/mL (≈ 23.1 µM); in the test with Enterobacter cloacae [14], > 25 µg/mL. Also, the results for the MIC in the test on Pseudomonas aeruginosa [15] and against Staphylococcus aureus [16] were 6.25 µg/mL (≈ 11.6 µM) and 0.781 µg/mL (≈ 1.44 µM), respectively.
In the case of `CC(C)(O/N=C(\C(=O)N[C@@H]1C(=O)N2C(C(=O)[O-])=C(C[n+]3ccccc3)CS[C@H]12)c1csc(N)n1)C(=O)O` [CEFTAZIDIME], the MIC is 0.098 µg/mL (≈ 0.179 µM) against Klebsiella aerogenes; 3.12 µg/mL (≈ 5.72 µM) in the test on Pseudomonas aeruginosa [1]; 0.098 µg/mL (≈ 0.179 µM) against Escherichia coli [2]; 0.098 µg/mL (≈ 0.179 µM) in the test on Escherichia coli [3]; > 100 µg/mL in the test with Enterococcus faecium; 0.195 µg/mL (≈ 0.357 µM) in the test on Escherichia coli [4]. Moreover, the MIC in the test with Staphylococcus aureus [17] was > 100 µg/mL; in the test on Escherichia coli [5], 0.098 µg/mL (≈ 0.179 µM); against Streptococcus pyogenes [6] it was 0.049 µg/mL (≈ 0.0896 µM); with Klebsiella oxytoca, 0.391 µg/mL (≈ 0.715 µM); in the test with Enterobacter cloacae [7], 0.025 µg/mL (≈ 0.0457 µM); with Streptococcus pyogenes [8], 12.5 µg/mL (≈ 22.9 µM). The MIC is 0.195 µg/mL (≈ 0.357 µM) in the test on Escherichia coli [9]; 0.098 µg/mL (≈ 0.179 µM) against Streptococcus pyogenes [10]; 0.195 µg/mL (≈ 0.357 µM) against Pseudomonas aeruginosa [11]; 12.5 µg/mL (≈ 22.9 µM) in the test with Staphylococcus aureus [12]; 0.195 µg/mL (≈ 0.357 µM) in the test on Salmonella typhimurium; 1.56 µg/mL (≈ 2.86 µM) in the test on Pseudomonas aeruginosa [13]. Moreover, the MIC in the test with Enterobacter cloacae [14] is > 100 µg/mL; with Pseudomonas aeruginosa [15] it was 0.781 µg/mL (≈ 1.43 µM); with Staphylococcus aureus [16], 3.12 µg/mL (≈ 5.72 µM).
Regarding `CO/N=C(/C(=O)N[C@@H]1C(=O)N2C(C(=O)[O-])=C(C[n+]3cccc(-c4cc(C)[nH]n4)c3)CS[C@H]12)c1csc(N)n1`, the minimal inhibitory concentration (MIC) amounted to 0.049 µg/mL (≈ 0.0883 µM) against Klebsiella aerogenes; 6.25 µg/mL (≈ 11.3 µM) against Pseudomonas aeruginosa [1]; 0.025 µg/mL (≈ 0.0451 µM) against Escherichia coli [2]; 0.025 µg/mL (≈ 0.0451 µM) with Escherichia coli [3]; 3.12 µg/mL (≈ 5.63 µM) with Enterococcus faecium; 0.098 µg/mL (≈ 0.177 µM) in the test on Escherichia coli [4]. Also, the MIC in the test on Staphylococcus aureus [17] is 25 µg/mL (≈ 45.1 µM); with Escherichia coli [5] it was 0.013 µg/mL (≈ 0.0234 µM); in the test with Streptococcus pyogenes [6], 0.007 µg/mL (≈ 0.0126 µM); in the test with Klebsiella oxytoca it was 1.56 µg/mL (≈ 2.82 µM); in the test on Enterobacter cloacae [7], 0.013 µg/mL (≈ 0.0234 µM); against Streptococcus pyogenes [8], 0.781 µg/mL (≈ 1.41 µM). The MIC in the test with Escherichia coli [9] was determined as 0.098 µg/mL (≈ 0.177 µM); against Streptococcus pyogenes [10], 0.007 µg/mL (≈ 0.0126 µM); in the test on Pseudomonas aeruginosa [11], 0.781 µg/mL (≈ 1.41 µM); against Staphylococcus aureus [12] it was 0.781 µg/mL (≈ 1.41 µM); against Salmonella typhimurium, 0.098 µg/mL (≈ 0.177 µM); against Pseudomonas aeruginosa [13], 3.12 µg/mL (≈ 5.63 µM). The minimal inhibitory concentration (MIC) in the test with Enterobacter cloacae [14] was determined as 50 µg/mL (≈ 90.2 µM); against Pseudomonas aeruginosa [15] it was 1.56 µg/mL (≈ 2.82 µM); with Staphylococcus aureus [16] it was 0.195 µg/mL (≈ 0.352 µM).
For `CO/N=C(/C(=O)N[C@@H]1C(=O)N2C(C(=O)[O-])=C(C[n+]3cccc(-c4cc(CO)nn4C)c3)CS[C@H]12)c1csc(N)n1`, the MIC against Klebsiella aerogenes stood at 0.098 µg/mL (≈ 0.168 µM); with Pseudomonas aeruginosa [1] it was 25 µg/mL (≈ 42.8 µM); against Escherichia coli [2], 0.049 µg/mL (≈ 0.0838 µM); in the test on Escherichia coli [3], 0.049 µg/mL (≈ 0.0838 µM); against Enterococcus faecium, 6.25 µg/mL (≈ 10.7 µM); against Escherichia coli [4] it was 0.195 µg/mL (≈ 0.334 µM). In addition, the minimum inhibitory concentration (MIC) against Escherichia coli [5] is 0.049 µg/mL (≈ 0.0838 µM); with Streptococcus pyogenes [6] it was 0.025 µg/mL (≈ 0.0428 µM); in the test with Klebsiella oxytoca it was 6.25 µg/mL (≈ 10.7 µM); with Enterobacter cloacae [7] it was 0.049 µg/mL (≈ 0.0838 µM); against Streptococcus pyogenes [8], 3.12 µg/mL (≈ 5.35 µM); against Escherichia coli [9], 0.098 µg/mL (≈ 0.168 µM). Also, the minimal inhibitory concentration (MIC) in the test with Streptococcus pyogenes [10] is 0.049 µg/mL (≈ 0.0838 µM); in the test on Pseudomonas aeruginosa [11], 0.391 µg/mL (≈ 0.669 µM); against Staphylococcus aureus [12] it was 3.12 µg/mL (≈ 5.35 µM); in the test with Salmonella typhimurium it was 0.195 µg/mL (≈ 0.334 µM); against Pseudomonas aeruginosa [13], 12.5 µg/mL (≈ 21.4 µM); in the test on Enterobacter cloacae [14], > 25 µg/mL. The minimal inhibitory concentration (MIC) is 3.12 µg/mL (≈ 5.35 µM) with Pseudomonas aeruginosa [15] and 0.781 µg/mL (≈ 1.34 µM) against Staphylococcus aureus [16].
Turning to `CO/N=C(/C(=O)N[C@@H]1C(=O)N2C(C(=O)[O-])=C(C[n+]3cccc(-c4cc(N)n(C)n4)c3)CS[C@H]12)c1csc(N)n1`, the MIC against Klebsiella aerogenes worked out at 0.025 µg/mL (≈ 0.0439 µM); against Pseudomonas aeruginosa [1] it was 6.25 µg/mL (≈ 11 µM); with Escherichia coli [2], 0.025 µg/mL (≈ 0.0439 µM); with Escherichia coli [3], 0.025 µg/mL (≈ 0.0439 µM); against Enterococcus faecium, 1.56 µg/mL (≈ 2.74 µM); in the test on Escherichia coli [4] it was 0.098 µg/mL (≈ 0.172 µM). Moreover, the MIC against Staphylococcus aureus [17] was 50 µg/mL (≈ 87.8 µM); against Escherichia coli [5], 0.013 µg/mL (≈ 0.0228 µM); in the test on Streptococcus pyogenes [6], 0.007 µg/mL (≈ 0.0123 µM); in the test with Klebsiella oxytoca, 1.56 µg/mL (≈ 2.74 µM); against Enterobacter cloacae [7], 0.025 µg/mL (≈ 0.0439 µM); in the test on Streptococcus pyogenes [8], 0.781 µg/mL (≈ 1.37 µM). Besides, the MIC against Escherichia coli [9] was found to be 0.049 µg/mL (≈ 0.086 µM); with Streptococcus pyogenes [10] it was 0.013 µg/mL (≈ 0.0228 µM); against Pseudomonas aeruginosa [11], 0.391 µg/mL (≈ 0.686 µM); with Staphylococcus aureus [12], 0.781 µg/mL (≈ 1.37 µM); in the test on Salmonella typhimurium it was 0.049 µg/mL (≈ 0.086 µM); in the test on Pseudomonas aeruginosa [13], 3.12 µg/mL (≈ 5.49 µM). Moreover, the figures for the minimum inhibitory concentration (MIC) in the test on Enterobacter cloacae [14], against Pseudomonas aeruginosa [15] and in the test with Staphylococcus aureus [16] were 25 µg/mL (≈ 43.9 µM), 1.56 µg/mL (≈ 2.74 µM) and 0.391 µg/mL (≈ 0.686 µM), respectively.
